Test system: 885512-296-R-J2-PDC complex spheroid growth, % test/control
Assay: Anticancer human tumor 885512-296-R-J2-PDC patient-derived breast carcinoma cell line growth inhibition [AhR]
Details: for IC50: curve of first compound; for viability, T/C: stronger effect = lower value
Outline: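 Agents were dosed in half-log steps down from roughly clinical Cmax, or from 10 microM where Cmax was unknown, alone and with AhR antagonists. Read-out: percent test/control growth of tumor spheroids containing HUVEC and MSC stromal cells.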

[1] = second compound 0.1 µM, first compound 0.0316 µM
[2] = second compound 0.1 µM, first compound 0.1 µM
[3] = second compound 0.1 µM, first compound 0.316 µM
[4] = second compound 0.1 µM, first compound 1 µM
[5] = second compound 0.1 µM, first compound 3.16 µM
[6] = second compound 0.1 µM, first compound 10 µM
[7] = second compound 0.316 µM, first compound 0.0316 µM
[8] = second compound 0.316 µM, first compound 0.1 µM
[9] = second compound 0.316 µM, first compound 0.316 µM
[10] = second compound 0.316 µM, first compound 1 µM
[11] = second compound 0.316 µM, first compound 3.16 µM
[12] = second compound 0.316 µM, first compound 10 µM
[13] = second compound 1 µM, first compound 0.0316 µM
[14] = second compound 1 µM, first compound 0.1 µM
[15] = second compound 1 µM, first compound 0.316 µM
[16] = second compound 1 µM, first compound 1 µM
[17] = second compound 1 µM, first compound 3.16 µM
[18] = second compound 1 µM, first compound 10 µM
[19] = second compound 3.16 µM, first compound 0.0316 µM
[20] = second compound 3.16 µM, first compound 0.1 µM
[21] = second compound 3.16 µM, first compound 0.316 µM
[22] = second compound 3.16 µM, first compound 1 µM
[23] = second compound 3.16 µM, first compound 3.16 µM
[24] = second compound 3.16 µM, first compound 10 µM
[25] = second compound 10 µM, first compound 0.0316 µM
[26] = second compound 10 µM, first compound 0.1 µM
[27] = second compound 10 µM, first compound 0.316 µM
[28] = second compound 10 µM, first compound 1 µM
[29] = second compound 10 µM, first compound 3.16 µM
[30] = second compound 10 µM, first compound 10 µM
[31] = second compound 0.1 µM, first compound 0.00316 µM
[32] = second compound 0.1 µM, first compound 0.01 µM
[33] = second compound 0.316 µM, first compound 0.00316 µM
[34] = second compound 0.316 µM, first compound 0.01 µM
[35] = second compound 1 µM, first compound 0.00316 µM
[36] = second compound 1 µM, first compound 0.01 µM
[37] = second compound 3.16 µM, first compound 0.00316 µM
[38] = second compound 3.16 µM, first compound 0.01 µM
[39] = second compound 10 µM, first compound 0.00316 µM
[40] = second compound 10 µM, first compound 0.01 µM
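Also: spheroids exposed to compounds for seven days.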

| IC50 (second compound 0.1 µM) | IC50 (second compound 0.316 µM) | IC50 (second compound 1 µM) | IC50 (second compound 3.16 µM) | IC50 (second compound 10 µM) | SMILES | viability, T/C [1] | viability, T/C [2] | viability, T/C [3] | viability, T/C [4] | viability, T/C [7] | viability, T/C [8] | viability, T/C [9] | viability, T/C [10] | viability, T/C [13] | viability, T/C [14] | viability, T/C [15] | viability, T/C [16] | viability, T/C [19] | viability, T/C [20] | viability, T/C [21] | other results |
| --- | --- | --- | --- | --- | --- | --- | --- | --- | --- | --- | --- | --- | --- | --- | --- | --- | --- | --- | --- | --- | --- |
| > 10000 nM | > 10000 nM | > 10000 nM | > 10000 nM | < 31.6 nM | CC(C)c1c(-c2ccccc2)nc2c(C#N)c[nH]n2c1=O + Cc1ccccc1N=Nc1ccc(NC(=O)c2ccnn2C)c(C)c1 | 105% | 106% | 108% | 110% | 106% | 104% | 111% | 104% | 96.2% | 94.4% | 98.4% | 98.6% | 80.9% | 79.2% | 82.7% | viability, T/C [5]: 111%; viability, T/C [6]: 104%; viability, T/C [11]: 102%; viability, T/C [12]: 99.4%; viability, T/C [17]: 90%; viability, T/C [18]: 96.4%; viability, T/C [22]: 88%; viability, T/C [23]: 81.8%; viability, T/C [24]: 67.3%; viability, T/C [25]: 45.5%; viability, T/C [26]: 50.8%; viability, T/C [27]: 55.2%; viability, T/C [28]: 45.4%; viability, T/C [29]: 47.4%; viability, T/C [30]: 42% |
| 35.4 nM | 42 nM | 40.5 nM | 41 nM | 11.8 nM | CC1COCCN1c1cc(-c2ccnn2C)c2ccnc(-c3ccn[nH]3)c2n1 (stereo not given) + Cc1ccccc1N=Nc1ccc(NC(=O)c2ccnn2C)c(C)c1 | 53.6% | 11.1% | 3.35% | 2.33% | 65.3% | 10.9% | 3.03% | 2.67% | 61.6% | 12% | 4.35% | 2.65% | 61.6% | 10.3% | 3.42% | viability, T/C [31]: 97.7%; viability, T/C [32]: 97.6%; viability, T/C [33]: 108%; viability, T/C [34]: 87.6%; viability, T/C [35]: 98.4%; viability, T/C [36]: 85.5%; viability, T/C [37]: 89.8%; viability, T/C [38]: 86.3%; viability, T/C [22]: 2.63%; viability, T/C [39]: 57.1%; viability, T/C [40]: 47.7%; viability, T/C [25]: 38.3%; viability, T/C [26]: 7.15%; viability, T/C [27]: 2.64%; viability, T/C [28]: 2.57% |
| 8290 nM | 7980 nM | 6550 nM | 5960 nM | < 31.6 nM | COc1ccc([C@@H](O)c2cc(-c3ncnc4cc(N5CCOCC5)ccc34)c(F)cc2Cl)nn1 + Cc1ccccc1N=Nc1ccc(NC(=O)c2ccnn2C)c(C)c1 | 107% | 106% | 91% | 80% | 92.9% | 117% | 110% | 95.7% | 112% | 96% | 100% | 78.9% | 85.4% | 92.9% | 83.2% | viability, T/C [5]: 74%; viability, T/C [6]: 44.3%; viability, T/C [11]: 71.4%; viability, T/C [12]: 44.8%; viability, T/C [17]: 60%; viability, T/C [18]: 44.2%; viability, T/C [22]: 69%; viability, T/C [23]: 66.4%; viability, T/C [24]: 38.9%; viability, T/C [25]: 46.2%; viability, T/C [26]: 49.9%; viability, T/C [27]: 47%; viability, T/C [28]: 48.3%; viability, T/C [29]: 38.9%; viability, T/C [30]: 26.2% |
| 551 nM | 601 nM | 395 nM | 170 nM | < 31.6 nM | COc1cc(C2c3cc4c(cc3C(OC3OC5COC(C)OC5C(O)C3O)C3COC(=O)C23)OCO4)cc(OC)c1O (stereo not given) + Cc1cncc(-c2nc(NCCc3c[nH]c4ccccc34)c3ncn(C(C)C)c3n2)c1 | 104% | 92.2% | 75% | 23.7% | 104% | 101% | 72.8% | 32.1% | 90.2% | 78% | 59.3% | 17.5% | 64.9% | 55.4% | 42% | viability, T/C [5]: 10.6%; viability, T/C [6]: 8.99%; viability, T/C [11]: 10.5%; viability, T/C [12]: 8.12%; viability, T/C [17]: 11.2%; viability, T/C [18]: 8.42%; viability, T/C [22]: 15.6%; viability, T/C [23]: 10.7%; viability, T/C [24]: 9.12%; viability, T/C [25]: 18.5%; viability, T/C [26]: 17.6%; viability, T/C [27]: 14.2%; viability, T/C [28]: 14.1%; viability, T/C [29]: 10.2%; viability, T/C [30]: 6.83% |
| < 31.6 nM | < 31.6 nM | < 31.6 nM | < 31.6 nM | < 31.6 nM | COc1cccc2c1C(=O)c1c(O)c3c(c(O)c1C2=O)CC(O)(C(=O)CO)CC3OC1CC(N)C(O)C(C)O1 (stereo not given) + Cc1cncc(-c2nc(NCCc3c[nH]c4ccccc34)c3ncn(C(C)C)c3n2)c1 | 23.9% | 15.2% | 5.94% | 0.65% | 24.4% | 19.5% | 6.25% | 0.34% | 19.7% | 17.9% | 5.13% | 0.84% | 17.6% | 12.1% | 3.2% | viability, T/C [5]: 2.45%; viability, T/C [6]: 1.44%; viability, T/C [11]: 2.13%; viability, T/C [12]: 1.46%; viability, T/C [17]: 1.28%; viability, T/C [18]: 1.33%; viability, T/C [22]: 0.73%; viability, T/C [23]: 0.57%; viability, T/C [24]: 0.58%; viability, T/C [25]: 11.9%; viability, T/C [26]: 5.06%; viability, T/C [27]: 0.48%; viability, T/C [28]: 0.21%; viability, T/C [29]: 0.27%; viability, T/C [30]: 0.26% |
| 863 nM | 871 nM | > 1000 nM | 354 nM | < 3.16 nM | Nc1ncn(C2CC(O)C(CO)O2)c(=O)n1 (stereo not given) + Cc1cncc(-c2nc(NCCc3c[nH]c4ccccc34)c3ncn(C(C)C)c3n2)c1 | 101% | 93.6% | 74.4% | 46.4% | 88.9% | 93.7% | 77.7% | 45.9% | 80.7% | 90.4% | 76% | 58.5% | 57.2% | 58.3% | 46% | viability, T/C [31]: 93.5%; viability, T/C [32]: 104%; viability, T/C [33]: 101%; viability, T/C [34]: 113%; viability, T/C [35]: 91.5%; viability, T/C [36]: 86%; viability, T/C [37]: 67.8%; viability, T/C [38]: 68.5%; viability, T/C [22]: 48.1%; viability, T/C [39]: 18.5%; viability, T/C [40]: 20.6%; viability, T/C [25]: 20.7%; viability, T/C [26]: 11.7%; viability, T/C [27]: 14.9%; viability, T/C [28]: 12.7% |

Source: PubChem BioAssay AID1919006 (Molecular Pharmacology Branch, DTP, NCI, 2023)
